Entries after “also recorded” stand apart in the source; their conditions may differ.
Experiments:
HBV capsids (HBV core) = assay type: biochemical
Procedure: The radiolabeled translation products were analyzed for formation of HBV core multimers by rae sedimentation on 10-50% sucrose gradients at 200,000 g for 1 h. Following fractionation of the gradients, the migration of radiolabeled core proteins was determined using SDS-PAGE, Coomassie staining, and autoradiography. Under these conditions, unlabeled protein standards of less than 12S, such as catalase, migrated in the first three fractions. […] The first region, at the top of the gradient (7) corresponds to the position of monomeric and small oligomeric core polypeptides, while the second region, in the middle of the gradient (M), corresponds to the position of authentic capsids. The third region, in the pellet (P), represents very high molecular weight structures. The possibility that either the pellet or the middle fraction consists of completed chains not yet released from ribosomes was ruled out by treatment of the translation products after completion of synthesis with EDTA, which is known to disassemble ribosomes (Sabatini et al., 1966).
To address this, pellet material was isolated by fractionating the products of a 30-min translation of HBV core on a sucrose gradient and resuspending the pellet in buffer. The resuspended pellet was divided into equal aliquots and treated either with aphyase or with buffer for 90 min at 24° C.

[1] = tested on: immature HIV capsids (Gag Pr55); assay: Cell-free translation and assembly of HIV capsids in wheat germ extract programmed with Gag transcript; assay type: biochemical; conditions: for Material in fractions corresponding to Final Capsid / Material in fractions corresponding to complex A / Material in fractions corresponding to complexes B/C: velocity sedimentation, apyrase added post-translationally, detergent cotranslationally
Procedure: Translation of the transcription products was carried out in wheat germ extract containing ^35S methionine (ICN Pharmaceuticals, Costa Mesa, Calif.). The wheat germ extract was prepared as described by Erickson and Blobel (1983) as modified below. Reactions were performed as previously described (Lingappa, J. R., et al., J. Cell. Biol. (1984) 125:99-111), except for modifications noted below.
A 25 microliter wheat germ transcription/translation reaction mixture contained: 5 microliters Gag transcript (prepared as described in transcription methods), 5 microliters wheat germ extract (prepared as described in wheat germ preparation; preferably using the high speed supernatant detailed in Example 4), 5 microliters 35-S Energy Mix 5× stock (Sigma Chemical Co., St. Louis, Mo.), 2.5 microliters Compensating Buffer (Sigma Chemical Co.), 1.0 microliter 40 mM MgAcetate (Sigma Chemical Co.), 2.0 microliters […] Myristoyl CoA (made up in 20 mM Tris Acetate, pH 7.6; Sigma Chemical Co.), 3.75 microliters 20 mM Tris Acetate buffer, […] (U.S. Biochemicals; Cleveland, Ohio), 0.25 microliter Creatine Kinase (4 mg/ml stock in 50% glycerol, 10 mM Tris Acetate; Boehringer Mannheim, Indianapolis, Ind.), 0.25 microliter bovine tRNA (10 mg/ml stock; Sigma Chemical Co.), and 0.25 microliter RNAse Inhibitor (20 units/50; Promega).
Myristoyl coenzyme A (MCoA; Sigma, St. Louis, Mo.) was added at a concentration of 10 micromolar at the start of translation when indicated. Translation reactions ranged in volume from 20 to 100 microliters and were incubated at 25° C. for 150 min. Some reactions were adjusted to a final concentration of the following agents at tunes indicated in the figures and specification: 0.2 μM emetine (Sigma); 1.0 units apyrase (Sigma) per mL translation; 0.002%, 0.1%, or 1.0% “NIKKOL”. Cell-free translation and assembly reactions were also carried out successfully in rabbit reticulocyte lysate prepared as described previously (Merrick, W. C., Methods Enzymol. 101:606-615 (1983)) or obtained from commercial suppliers (Promega, Madison, Wis.). In pulse-chase experiments, translation reactions contained ^35S cysteine (Amersham Life Sciences, Cleveland, Ohio) for radiolabeling. After 4 min translation reaction time, 3 mM unlabeled cysteine was added, and the reaction was continued at 25° C. for variable chase times as indicated in the experiments described herein.
Where indicated, wheat germ extract prepared as described in Example 1 was centrifuged at either 50,000 rpm for 21 min or 100,000 rpm for 30 min in a TLA 100 rotor (Beckman Instruments, Palo Alto, Calif.). The supernatant (high-speed supernatant, HSS) of the 50,000 rpm spin was used for cell-free translation and assembly reactions. The pellet of the 100,000 rpm spin (high speed pellet, HSP) was resuspended at a 5× concentration in buffer (25 mM Hepes pH 7.4, 4 mM MgAc, 100 mM KAc, 0.25M sucrose). Wheat germ extract adjusted to contain a concentration 0.5% “NIKKOL” was subjected to the same ultracentrifugation in parallel to generate the detergent treated high-speed pellet (HSPd). This pellet was washed twice with […] of the above non-detergent buffer in order to remove traces of detergent, and then resuspended as described above. Following treatment with emetine at […], 1.8 μL of HSP or HSPd was added to the […] cell-free reactions programmed with HSS. Control reactions were treated with the same volume of buffer at the same time. At the end of the 150 min incubation, reactions were separated into soluble and particulate fractions and analyzed as described above.
The cell-free translation/assembly system of the invention contains the components described in Part A, above. Example 1 provides details of an exemplary system derived from wheatgerm extract, which is capable of supporting translation and assembly of HIV capsids. Briefly, protein synthesis was initiated in the cell-free translation/assembly system by adding an mRNA that encodes Gag Pr55 protein. […]

[2] = tested on: 750S immature HIV-1 capsids; assay: HP68 immunodepletion-reconstitution of cell-free HIV-1 capsid assembly; assay type: biochemical
Procedure: WG extract (150 μl) was immunodepleted for 45 min at 4° C. with 100 μl beads coupled to antibody against WGHP68. Cell-free reactions (15 μl) were programmed (Lingappa et al., J. Cell Biol. 136:567-81 (1997)) using non-depleted WG or depleted WG. To some reactions containing depleted WG, purified WGHP68-GST or HuHP68-GST fusion protein or GST alone was added (2 μl of approx. 20 ng/μl) at the start of the reaction. After 3 hours at 26° C., NP40 was added to a final concentration of 1% and reactions underwent velocity sedimentation (5 ml, 15-60% sucrose gradients, Beckman MLS55 rotor: 45,000 rpm, 45 min). Thirty fractions, collected using a fractionator, were analyzed by SDS-PAGE and AR, followed by densitometry of Gag in each lane. For Proteinase K digestion, aliquots of fractions from the 500S and 750S regions of the gradient were collected and subjected to a 10 min incubation at RT with either no Proteinase K or 0.1 μg/ml Proteinase K. Digestion was terminated by adding SDS and freezing. Samples were analyzed by SDS-PAGE and AR. Graphs show average of three independent experiments (+/−SEM).
To generate purified HP68, WGHP68 and HuHP68 were subcloned into a pGEX vector (Pharmacia), to encode fusion proteins containing GST at the N-terminus. […] Concentration of fusion protein and GST in eluate was determined using the Coomassie Plus protein assay (Pierce). […]

HIV-1 particle formation = assay type: cell-based; conditions: Cos-1 cells
Procedure: Cos-1 cells were transfected using Gag expression plasmids pCMVRev and PSVGagRRE-R described in Simon et al, J. Virology, (1997) 71:1013-18. HP68 plasmids for mammalian expression were constructed by using PCR to insert the coding regions for WGHP68, amino acids 1-378, Nhe1/Xba1 of pCDNA 3.1 (Invitrogen). Coding regions of all constructs were sequenced. Cells were transfected using Gibco Lipofectamine (Cos-1) or Lipofectamine Plus (293T). All transfections used a constant amount of DNA (18 μg per 60 mm dish). Medium was changed 24 hours after transfection and harvest was performed 28 or 60 hours after transfection for immunofluorescence and immunoblotting respectively. For immunofluorescence, cells were fixed in paraformaldehyde, permeabilized with 1% triton, and incubated with mouse HIV-1 Gag antibody (1:50) and affinity-purified HuHP68 antiserum (1:2000), followed by Cy3- and Cy 2-coupled secondary (Jackson) (1:200). 178 cells were quantitated. For immunoblotting in FIG. 13 rat IgG was added to medium as a tracer at 10 μg/ml at the time of harvest, and cells were harvested in SDS sample buffer with boiling. For quantitation of immunoblotts, bands were compared to an immunoblot standard curve generated with known quantities of sample. […]

[3] = emetine added after 50 min, incubated to 150 min

HBV capsids (HBV core), sequence (P03146 whole entry): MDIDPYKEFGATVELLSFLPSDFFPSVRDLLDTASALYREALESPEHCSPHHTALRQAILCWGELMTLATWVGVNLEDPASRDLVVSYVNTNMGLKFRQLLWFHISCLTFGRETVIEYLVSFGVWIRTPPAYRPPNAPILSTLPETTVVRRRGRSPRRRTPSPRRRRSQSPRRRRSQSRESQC

## O=C(O)CN(CCN(CC(=O)O)CC(=O)O)CC(=O)O [EDTA]
HBV capsids (HBV core); treatment of translation products after completion of synthesis, 10 mM
  distribution of labeled core polypeptides in top, middle and pellet fractions: largely unaffected; also recorded: had no effect

## CCCCCCCCCCCCOCCOCCOCCOCCOCCOCCOCCOCCO [NIKKOL, octaethyleneglycol mono n-dodecyl ether]
[1]; 0.002% added at start of translation, 10 μM MCoA
  capsid assembly: This effect was not observed
[1]; 0.1% added at start of translation, 10 μM MCoA
  capsid assembly: largely abolished capsid assembly
[1]; added after completion of the 150 min assembly reaction, up to 1.0%
  amount of assembly: did not diminish the amount of assembly
[1]; concentration of 0.1%
  Gag polypeptide synthesis: had no effect on Gag polypeptide synthesis
[1]; emetine and 0.1% NIKKOL, post-translational phase 50 min into the reaction
  assembly: assembly was dramatically reduced
[1]
  Material in fractions corresponding to Final Capsid: 189
  Material in fractions corresponding to complex A: 2656
  Material in fractions corresponding to complexes B/C: 6130

## CCCCCCCCCCCCCC(=O)SCCNC(=O)CCNC(=O)[C@H](O)C(C)(C)COP(=O)(O)OP(=O)(O)OC[C@H]1O[C@@H](n2cnc3c(N)ncnc32)[C@H](O)[C@@H]1OP(=O)(O)O [MCoA, Myristoyl Coenzyme A]
[1]; 10 μM MCoA
  total amount of Pr55 synthesized: had no effect on the total amount of Pr55 synthesized
[1]; 10 μM MCoA added at 90 min, post-translational phase
  assembly into capsids: very little assembly occurred

## Nc1ncnc2c1ncn2[C@@H]1O[C@H](COP(=O)(O)OP(=O)(O)NP(=O)(O)O)[C@@H](O)[C@H]1O [AMP-PNP]
[1]; added after apyrase treatment
  reversal of the effect of ATP depletion on assembly: not reversed

## apyrase
[1]; apyrase added after capsid assembly was completed
  amount of assembly (capsid stability): had no effect on the amount of assembly
[1]; apyrase added after emetine at 50 min
  total amount of Pr55 synthesis: did not change the total amount of Pr55 synthesis
[1]; apyrase added immediately after 0.2 μM emetine at 50 min, 150 min
  capsid assembly: dramatic reduction in capsid assembly
[1]
  Material in fractions corresponding to Final Capsid: 133
  Material in fractions corresponding to complex A: 2851
  Material in fractions corresponding to complexes B/C: 5999
HBV capsids (HBV core); resuspended pellet of a 30-min translation, 90 min at 24° C.
  release of capsids from the isolated pellet: results in release of completed capsids from the pellet

## CC[C@H]1CN2CCc3cc(OC)c(OC)cc3[C@@H]2C[C@@H]1C[C@H]1NCCc2cc(OC)c(OC)cc21 [emetine]
[1]; [3]
  proportion of capsid assembly: comparable to that of the untreated control
  total Pr55 synthesis, of the control: 60%
HBV capsids (HBV core)
  effect on treatment of the isolated pellet with energy substrates or apyrase: did not affect the results

B1: WGHP68-GST: fusion protein of wheat germ HP68 with GST at the N-terminus (protein)
chain: MADRLTRIAIVSEDKCKPKKCRQECKKSCPVVKTGKLCIEVSPVAKLAFISEELCIGCGICVKKCPFDAIEIINLPKDLEKDTTHRYGPNTFKLHRLPVPRPGQVLGLVGTNGIGKSTALKVLAGKLKPNLGRFKNPPDWQEILTYFRGSELQNYFTRILEDNLKAIIKPQYVDHIPKAVQGNVGQVLEQKDERDMKNELCVDLELNQVIDRNVGDLSGGELQRFAIAVVAVQSAEIYMFDEPSSYLDVKQRLKAARVIRSLLRSNSYVIVVEHDLSVLDYLSDFICCLYGKPGAYGVVTLPFSVREGINIFLAGFVPTENLRFRDESLTFKIAETQESAEEVATYQRYKYPTMSKTQGNFKLSVVEGEFTDSQIVVMLGENGTGKTTFIRMLAGLLKPDTMEGTEVEIPEFNVSYKPQKISPKFQHPVRHLLHSKIRDSYTHPQFVSDVMKPLQIEQLMDQEVINLSGGELQRVALCLCLGKPADIYLIDEPSAYLDSEQRIVASKVIKRFILHAKKTAFIVEHDFIMATYLADKVIVYEGLASIDCTANAPQSLVSGMNKFLSHLDITFRRDPTNYRPRINKLESTKDREQKNAGSYYYLDD
modifications: left off: a dimerising Fc or GST
notes: fusion protein of wheat germ HP68 with GST at the N-terminus
[2]; added to HP68 immunodepleted WG extract
  total amount of radiolabeled Gag synthesized: had no effect
[2]; added to HP68 immunodepleted WG extract programmed with HIV-1 Gag transcript
  increase in the amount of 750S capsid: 3 fold

B2: WGHP68-Tr1: 379 amino acid truncated form of wheat germ HP68, stop codon before the second nucleotide-binding domain (protein)
chain: MADRLTRIAIVSEDKCKPKKCRQECKKSCPVVKTGKLCIEVSPVAKLAFISEELCIGCGICVKKCPFDAIEIINLPKDLEKDTTHRYGPNTFKLHRLPVPRPGQVLGLVGTNGIGKSTALKVLAGKLKPNLGRFKNPPDWQEILTYFRGSELQNYFTRILEDNLKAIIKPQYVDHIPKAVQGNVGQVLEQKDERDMKNELCVDLELNQVIDRNVGDLSGGELQRFAIAVVAVQSAEIYMFDEPSSYLDVKQRLKAARVIRSLLRSNSYVIVVEHDLSVLDYLSDFICCLYGKPGAYGVVTLPFSVREGINIFLAGFVPTENLRFRDESLTFKIAETQESAEEVATYQRYKYPTMSKTQGNFKLSVVEGEFTDSQIVVM
HIV-1 particle formation
  Gag and actin levels in cell lysates: remained unchanged
  toxicity to cells: not toxic to cells

Reference: patent US7638269B2, “Viral capsid assembly intermediates and methods of production” (priority 1997, dated 2009)
